Measurements taken from patent publication US20050113405A1, “Methods of treating rheumatoid arthritis using NF-kB inhibitors” (Wyeth, priority 2003, published 2005).
Each block holds one compound with its values, some of them ahead of it.

What was measured:
[1] = test system: Lewis rats with adjuvant-induced arthritis; test: Adjuvant-induced arthritis in Lewis rats, daily joint scores (hindpaw erythema and swelling); type: in vivo, rat
[2] = test system: Lewis rats with adjuvant-induced arthritis; test: Adjuvant-induced arthritis in Lewis rats, histological scoring of tarsal joints (Mankin and synovitis scores); type: in vivo, rat; settings: for Tidemark Integrity (0-1) / Cartilage Cells (0-3) / Cartilage Structure (0-6) / Fibroplasia (0-3) / Inflammatory Cells (0-3) / Pannus (0-2) / Saffranin-O/Fast Green Staining (0-4) / Synovial Structure (0-3) / Total Mankin Score (0-14) / Total Synovitis Score (0-10): tarsal joints; for Cartilage Cells (0-3) / Cartilage Structure (0-6) / Fibroplasia (0-3) / Inflammatory Cells (0-3) / Pannus (0-2) / Saffranin-O/Fast Green Staining (0-4) / Synovial Structure (0-3) / Total Mankin Score (0-14) / Total Synovitis Score (0-10): mean ± SD
Experimental: Statistical analysis was performed using Abacus Concepts Super ANOVA. (Abacus Concepts, Inc., Berkeley, Calif.). All of the parameters of interest were subjected to Analysis of Variance with Duncan's new multiple range post hoc testing between groups. Data are expressed throughout as mean±standard deviation (SD), and differences were deemed significant if p<0.05.
At the end of the study the rats were euthanized with CO2, hindlimbs were removed at necropsy and fixed in 10% buffered formalin, and the tarsal joints were decalcified and embedded in paraffin. Histologic sections will be stained with Hematoxylin and Eosin or Saffranin O—Fast Green stain.
Slides will be coded so that the examiner will be blinded to the treatment groups. […] Articular cartilage and bone will be evaluated using Mankin's histological grading system (method described by Mankin H J, Dorfman, H:Lippieo L. L. Zarins. 1971. Biochemical and metabolic abnormalities in articular cartilage from osteoarthritic human hip. See J. Bone Joint Surg (AM) 53A:152-153) (Table 6).

BALB/c mice = test: Collagen induced arthritis model (anti-type II collagen mAbs plus LPS), hind paw volume; type: in vivo, mouse; settings: 2.5 mg/kg orally once daily; over the course of the experiment
Experimental: Compounds are evaluated in BALB/c mice, 6-8 weeks of age, in which arthritis is induced by monoclonal antibodies raised against type II collagen, plus lipopolysaccharide (LPS). The animals were administered intravenously with a combination of 4 different mAbs totaling 4 mg/mouse on day 0, and followed by intravenous 25 μg of LPS 72 hours later (day 3). From day 3, one hour after LPS application, tested compounds are give orally once daily for 15 days. For each animal, increase in volume of both hind paws is measured using a plethysmometer with water cell (12 mm diameter) on days 0, 5, 7, 10, 14 and 17. Percent inhibition of increase in volume is calculated. Reduction of edema in the hind paws by 30% or more is considered significant.

HLA-B27 transgenic rats [3] = test: HLA-B27 transgenic rat, stool and clinical joint scores; type: in vivo; settings: sub-optimal dose 0.6 mg/kg
Text: (§1) The HLA-B27 transgenic rat expresses two human proteins (HLA-B27 and β2 microglobulin) that, over time, provoke a misdirected immune response. This model represents a chronic intestinal inflammation with associated arthritis induced by the human class I major histocompatibility allele HLA-B27 that is strongly associated with human disease. […] If the disease is allowed to progress, they begin to show symptoms of arthritis. […] Histological scoring of synovitis and cartilage damage in the tarsal joints after 29 days of treatment was also conducted.

HLA-B27 transgenic rats [4] = test: HLA-B27 transgenic rat, histological scoring of synovitis and cartilage damage in tarsal joints; type: in vivo; settings: 0.6 mg/kg orally for 29 days
Text: as §1

[5] = 0.1 mg/kg orally for 2 weeks from day 8 after CFA
[6] = 0.3 mg/kg orally for 2 weeks from day 8 after CFA
[7] = 1 mg/kg orally for 2 weeks from day 8 after CFA

melting point: 188 °C
SMILES: C[C@@H]1c2cc(F)ccc2-c2ccccc2N1S(=O)(=O)c1ccc(O)cc1 (stereo in doubt) [Example 3, 4-[(8-Fluoro-6-methylphenanthridin-5(6H)-yl)sulfonyl]phenol]
joint scores (paw swelling and redness, maximal score per day 12) ([1]; Day 8, 0.1 mg/kg orally each day from Day 8 after adjuvant): 11.3 | joint scores (paw swelling and redness, maximal score per day 12) ([1]; Day 8, 0.3 mg/kg orally each day from Day 8 after adjuvant): 11.5 | joint scores (paw swelling and redness, maximal score per day 12) ([1]; Day 8, 1 mg/kg orally each day from Day 8 after adjuvant): 11.3 | joint scores (paw swelling and redness, maximal score per day 12) ([1]; Day 9, 0.1 mg/kg orally each day from Day 8 after adjuvant): 10.7 | joint scores (paw swelling and redness, maximal score per day 12) ([1]; Day 9, 0.3 mg/kg orally each day from Day 8 after adjuvant): 9.8 | joint scores (paw swelling and redness, maximal score per day 12) ([1]; Day 9, 1 mg/kg orally each day from Day 8 after adjuvant): 8.8 | joint scores (paw swelling and redness, maximal score per day 12) ([1]; Day 10, 0.1 mg/kg orally each day from Day 8 after adjuvant): 9.3 | joint scores (paw swelling and redness, maximal score per day 12) ([1]; Day 10, 0.3 mg/kg orally each day from Day 8 after adjuvant): 7.3 | joint scores (paw swelling and redness, maximal score per day 12) ([1]; Day 10, 1 mg/kg orally each day from Day 8 after adjuvant): 7 | joint scores (paw swelling and redness, maximal score per day 12) ([1]; Day 11, 0.1 mg/kg orally each day from Day 8 after adjuvant): 9.7 | joint scores (paw swelling and redness, maximal score per day 12) ([1]; Day 11, 0.3 mg/kg orally each day from Day 8 after adjuvant): 7 | joint scores (paw swelling and redness, maximal score per day 12) ([1]; Day 11, 1 mg/kg orally each day from Day 8 after adjuvant): 6 | joint scores (paw swelling and redness, maximal score per day 12) ([1]; Day 12, 0.1 mg/kg orally each day from Day 8 after adjuvant): 10 | joint scores (paw swelling and redness, maximal score per day 12) ([1]; Day 12, 0.3 mg/kg orally each day from Day 8 after adjuvant): 6.7 | joint scores (paw swelling and redness, maximal score per day 12) ([1]; Day 12, 1 mg/kg orally each day from Day 8 after adjuvant): 5 | joint scores (paw swelling and redness, maximal score per day 12) ([1]; Day 13, 0.1 mg/kg orally each day from Day 8 after adjuvant): 4.2 | joint scores (paw swelling and redness, maximal score per day 12) ([1]; Day 13, 0.3 mg/kg orally each day from Day 8 after adjuvant): 3.7 | joint scores (paw swelling and redness, maximal score per day 12) ([1]; Day 13, 1 mg/kg orally each day from Day 8 after adjuvant): 1.7 | joint scores (paw swelling and redness, maximal score per day 12) ([1]; Day 14, 0.1 mg/kg orally each day from Day 8 after adjuvant): 3.5 | joint scores (paw swelling and redness, maximal score per day 12) ([1]; Day 14, 0.3 mg/kg orally each day from Day 8 after adjuvant): 3 | joint scores (paw swelling and redness, maximal score per day 12) ([1]; Day 14, 1 mg/kg orally each day from Day 8 after adjuvant): 1.3 | joint scores (paw swelling and redness, maximal score per day 12) ([1]; Day 15, 0.1 mg/kg orally each day from Day 8 after adjuvant): 3.5 | joint scores (paw swelling and redness, maximal score per day 12) ([1]; Day 15, 0.3 mg/kg orally each day from Day 8 after adjuvant): 3.7 | joint scores (paw swelling and redness, maximal score per day 12) ([1]; Day 15, 1 mg/kg orally each day from Day 8 after adjuvant): 1.3 | joint scores (paw swelling and redness, maximal score per day 12) ([1]; Day 16, 0.1 mg/kg orally each day from Day 8 after adjuvant): 3.3 | joint scores (paw swelling and redness, maximal score per day 12) ([1]; Day 16, 0.3 mg/kg orally each day from Day 8 after adjuvant): 2.3 | joint scores (paw swelling and redness, maximal score per day 12) ([1]; Day 16, 1 mg/kg orally each day from Day 8 after adjuvant): 1.2 | joint scores (paw swelling and redness, maximal score per day 12) ([1]; Day 17, 0.1 mg/kg orally each day from Day 8 after adjuvant): 3.3 | joint scores (paw swelling and redness, maximal score per day 12) ([1]; Day 17, 0.3 mg/kg orally each day from Day 8 after adjuvant): 2.3 | joint scores (paw swelling and redness, maximal score per day 12) ([1]; Day 17, 1 mg/kg orally each day from Day 8 after adjuvant): 1.2 | joint scores (paw swelling and redness, maximal score per day 12) ([1]; Day 18, 0.1 mg/kg orally each day from Day 8 after adjuvant): 3.3 | joint scores (paw swelling and redness, maximal score per day 12) ([1]; Day 18, 0.3 mg/kg orally each day from Day 8 after adjuvant): 2.3 | joint scores (paw swelling and redness, maximal score per day 12) ([1]; Day 18, 1 mg/kg orally each day from Day 8 after adjuvant): 1.2 | joint scores (paw swelling and redness, maximal score per day 12) ([1]; Day 19, 0.1 mg/kg orally each day from Day 8 after adjuvant): 3 | joint scores (paw swelling and redness, maximal score per day 12) ([1]; Day 19, 0.3 mg/kg orally each day from Day 8 after adjuvant): 2 | joint scores (paw swelling and redness, maximal score per day 12) ([1]; Day 19, 1 mg/kg orally each day from Day 8 after adjuvant): 1.2 | joint scores (paw swelling and redness, maximal score per day 12) ([1]; Day 20, 0.1 mg/kg orally each day from Day 8 after adjuvant): 2.8 | joint scores (paw swelling and redness, maximal score per day 12) ([1]; Day 20, 0.3 mg/kg orally each day from Day 8 after adjuvant): 2 | joint scores (paw swelling and redness, maximal score per day 12) ([1]; Day 20, 1 mg/kg orally each day from Day 8 after adjuvant): 1.2 | joint scores (paw swelling and redness, maximal score per day 12) ([1]; Day 21, 0.1 mg/kg orally each day from Day 8 after adjuvant): 2.5 | joint scores (paw swelling and redness, maximal score per day 12) ([1]; Day 21, 0.3 mg/kg orally each day from Day 8 after adjuvant): 1.7 | joint scores (paw swelling and redness, maximal score per day 12) ([1]; Day 21, 1 mg/kg orally each day from Day 8 after adjuvant): 1.2 | joint scores (paw swelling and redness, maximal score per day 12) ([1]; Day 22, 0.1 mg/kg orally each day from Day 8 after adjuvant): 2.5 | joint scores (paw swelling and redness, maximal score per day 12) ([1]; Day 22, 0.3 mg/kg orally each day from Day 8 after adjuvant): 1.7 | joint scores (paw swelling and redness, maximal score per day 12) ([1]; Day 22, 1 mg/kg orally each day from Day 8 after adjuvant): 1.2 | joint scores (paw swelling and redness, maximal score per day 12) ([1]; Day 23, 0.1 mg/kg orally each day from Day 8 after adjuvant): 1.2 | joint scores (paw swelling and redness, maximal score per day 12) ([1]; Day 23, 0.3 mg/kg orally each day from Day 8 after adjuvant): 1 | joint scores (paw swelling and redness, maximal score per day 12) ([1]; Day 23, 1 mg/kg orally each day from Day 8 after adjuvant): 1 | joint scores (paw swelling and redness, maximal score per day 12) ([1]; Day 24, 0.1 mg/kg orally each day from Day 8 after adjuvant): 1.3 | joint scores (paw swelling and redness, maximal score per day 12) ([1]; Day 24, 0.3 mg/kg orally each day from Day 8 after adjuvant): 1.3 | joint scores (paw swelling and redness, maximal score per day 12) ([1]; Day 24, 1 mg/kg orally each day from Day 8 after adjuvant): 0.8 | Tidemark Integrity (0-1) [2, 5]: 0 | Cartilage Cells (0-3) [2, 5]: 1.92 ± 0.21 | Cartilage Structure (0-6) [2, 5]: 2.33 ± 0.68 | Fibroplasia (0-3) [2, 5]: 1.75 ± 0.42 | Inflammatory Cells (0-3) [2, 5]: 1.83 ± 0.52 | Pannus (0-2) [2, 5]: 1.50 ± 0.84 | Saffranin-O/Fast Green Staining (0-4) [2, 5]: 2.42 ± 0.67 | Synovial Structure (0-3) [2, 5]: 2.33 ± 0.75 | Total Mankin Score (0-14) [2, 5]: 6.83 ± 1.25 | Total Synovitis Score (0-10) [2, 5]: 7.42 ± 2.25 | Tidemark Integrity (0-1) [2, 6]: 0 | Cartilage Cells (0-3) [2, 6]: 1.50 ± 0.32 | Cartilage Structure (0-6) [2, 6]: 1.75 ± 0.42 | Fibroplasia (0-3) [2, 6]: 1.67 ± 0.26*t | Inflammatory Cells (0-3) [2, 6]: 1.25 ± 0.27 | Pannus (0-2) [2, 6]: 0.50 ± 0.84 | Saffranin-O/Fast Green Staining (0-4) [2, 6]: 2.17 ± 0.26 | Synovial Structure (0-3) [2, 6]: 1.58 ± 0.38 | Total Mankin Score (0-14) [2, 6]: 5.42 ± 0.74*t | Total Synovitis Score (0-10) [2, 6]: 5.00 ± 1.30*#t | Tidemark Integrity (0-1) [2, 7]: 0 | Cartilage Cells (0-3) [2, 7]: 1.17 ± 0.26*t | Cartilage Structure (0-6) [2, 7]: 1.25 ± 0.27 | Fibroplasia (0-3) [2, 7]: 1.33 ± 0.41*t | Inflammatory Cells (0-3) [2, 7]: 1.17 ± 0.26 | Pannus (0-2) [2, 7]: 0.25 ± 0.42 | Saffranin-O/Fast Green Staining (0-4) [2, 7]: 2.17 ± 0.26 | Synovial Structure (0-3) [2, 7]: 1.42 ± 0.38 | Total Mankin Score (0-14) [2, 7]: 4.58 ± 0.74*t | Total Synovitis Score (0-10) [2, 7]: 4.17 ± 1.21*#t | overall synovitis and cartilage scores ([2]; all concentrations tested (down to 0.1 mg/kg), oral): significantly improved | inhibition of paw edema (increase in hind paw volume) (BALB/c mice): > 30%

melting point: 186 to 188 °C
SMILES: COc1cc(OC)cc(N2CCN(C(=O)[C@](C)(C#N)[C@H](c3ccccc3OC)c3cccc4ccccc34)CC2)c1 [Example 4, (S)-3-[4-(3,5-dimethoxyphenyl)piperazin-1-yl]-2-[(S)-(2-methoxyphenyl)(1-naphthyl)methyl]-2-methyl-3-oxopropanenitrile]

SMILES: C[C@]12C=CC(=O)C=C1CC[C@@H]1[C@@H]2[C@@H](O)C[C@@]2(C)[C@H]1CC[C@]2(O)C(=O)CO [Prednisolone]
improvement in the joint scores (HLA-B27 transgenic rats [3]): 50% | Tidemark Integrity (0-2) (HLA-B27 transgenic rats [4]): 0 | Cartilage Cells (HLA-B27 transgenic rats [4]; mean ± SD): 2.20 ± 0.45 | Cartilage Structure (0-6) (HLA-B27 transgenic rats [4]; mean ± SD): 3.40 ± 0.55 | Fibroplasia (0-3) (HLA-B27 transgenic rats [4]; mean ± SD): 2.00 ± 0.71 | Inflammatory Cells (0-3) (HLA-B27 transgenic rats [4]; mean ± SD): 2.00 ± 0.00 | Pannus (0-2) (HLA-B27 transgenic rats [4]; mean ± SD): 1.60 ± 0.89 | Safranin-O/Fast Green Staining (0-4) (HLA-B27 transgenic rats [4]; mean ± SD): 3.00 ± 0.00 | Synovial Structure (0-3) (HLA-B27 transgenic rats [4]; mean ± SD): 2.40 ± 0.55 | Total Mankin Score (HLA-B27 transgenic rats [4]; mean ± SD): 8.60 ± 0.89 | Total Synovitis Score (0-11) (HLA-B27 transgenic rats [4]; mean ± SD): 8.00 ± 1.87
